The target of this assay is JAK2 (JH1 domain-catalytic, Y1007F, Y1008F) kinase (Homo sapiens (Human), UniProt O60674, Y1007F/Y1008F). Kind of assay: JAK2 JH1 Domain Binding Assay. Conditions: qPCR readout. In short, it runs like this: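 JH1 catalytic domain (Y1007F/Y1008F) expressed as NFkB DNA-binding-domain fusion in HEK293 cells, DNA-tagged. Competition with immobilized biotinylated ligand on streptavidin beads, 1 h at RT in PBS/Tween/BSA/DTT; bound kinase eluted with free ligand and quantified by qPCR.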
Chain of JAK2 (JH1 domain-catalytic, Y1007F, Y1008F) kinase (O60674 849-1124 Y1007F/Y1008F): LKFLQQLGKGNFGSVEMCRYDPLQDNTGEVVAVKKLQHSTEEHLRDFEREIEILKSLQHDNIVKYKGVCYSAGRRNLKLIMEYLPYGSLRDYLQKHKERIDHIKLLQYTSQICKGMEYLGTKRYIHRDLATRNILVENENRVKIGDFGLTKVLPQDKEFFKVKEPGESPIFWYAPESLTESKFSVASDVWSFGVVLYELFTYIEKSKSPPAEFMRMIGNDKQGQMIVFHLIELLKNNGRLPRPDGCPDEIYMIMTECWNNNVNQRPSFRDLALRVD
A general note: Quantitative PCR measures a nucleic acid by following its amplification.

The structures appear in SMILES notation.

As usually defined, the Kd is a measure of binding affinity in units of concentration. The low end stands for a tighter complex, the high end for a looser complex.

In turn, `CN(C(=O)Nc1cc(C(F)(F)F)cn(C)c1=O)[C@H]1CCN(c2cnc3[nH]ccc3n2)C[C@H]1F` [Example I-64-b, 1-((3R,4S)-3-fluoro-1-(5HI-pyrrolo[2,3-b]pyrazin-2-yl)piperidin-4-yl)-1-methyl-3-(1-methyl-2-oxo-5-(trifluoromethyl)-1,2-dihydropyridin-3-yl)urea] had a Kd of under 10 nM.

`CC(=O)Nc1cnc(N2CC[C@H](N(C)C(=O)Nc3cc(C(F)(F)F)cn(C)c3=O)C(F)(F)C2)cn1` (single isomer, unassigned) [Example I-35-b] displayed a Kd of under 10 nM.

Take `COc1n[nH]c2ncc(N3CCC(N(C)C(=O)Nc4cc(C(F)(F)F)cn(C)c4=O)CC3)cc12` [Example I-69, 1-(1-(3-methoxy-1H-pyrazolo[3,4-b]pyridin-5-yl)piperidin-4-yl)-1-methyl-3-(1-methyl-2-oxo-5-(trifluoromethyl)-1,2-dihydropyridin-3-yl)urea]: the Kd is under 10 nM.

`COc1n[nH]c2ncc(N3CCC(N(C)C(=O)Nc4cc(C(F)(F)F)ccn4)CC3)cc12` [Example I-138, 1-(1-(3-methoxy-1H-pyrazolo[3,4-b]pyridin-5-yl)piperidin-4-yl)-1-methyl-3-(4-(trifluoromethyl)pyridin-2-yl)urea] showed a Kd of under 10 nM.

`CN(C(=O)Nc1cc(C(F)(F)F)cn(C)c1=O)[C@@H]1C[C@@H]2C[C@H]1CN2c1cnc(NC(=O)C2CC2)cn1` (single isomer, unassigned) [Example I-44-a] displayed a Kd of 10 to 50 nM.

Consider `C[C@H]1C[C@@H](N(C)C(=O)Nc2cc(C(F)(F)F)cn(C)c2=O)CCN1c1cnc2[nH]ccc2n1` [Example I-126-a, 1-methyl-1-((2S,4S)-2-methyl-1-(5H-pyrrolo[2,3-b]pyrazin-2-yl)piperidin-4-yl)-3-(1-methyl-2-oxo-5-(trifluoromethyl)-1,2-dihydropyridin-3-yl)urea], for which the dissociation constant (Kd) was under 10 nM.

As for `CNc1c[nH]c2ncc([C@H]3CC[C@H](N(C)C(=O)Nc4cc(C(F)(F)F)cn(C)c4=O)CC3)nc12` [Example I-144, trans-1-methyl-3-(1-methyl-2-oxo-5-(trifluoromethyl)-1,2-dihydropyridin-3-yl)-1-(4-(7-(methylamino)-5H-pyrrolo[2,3-b]pyrazin-2-yl)cyclohexyl)urea], the Kd was under 10 nM.

Take `CNc1n[nH]c2ncc(N3CC[C@H](N(C)C(=O)Nc4cc(C(F)(F)F)cn(C)c4=O)C(F)(F)C3)cc12` [Example I-125-b, (S)-1-(3,3-difluoro-1-(3-(methylamino)-1H-pyrazolo[3,4-b]pyridin-5-yl)piperidin-4-yl)-1-methyl-3-(1-methyl-2-oxo-5-(trifluoromethyl)-1,2-dihydropyridin-3-yl)urea]: the Kd was under 10 nM.

`CN(C(=O)Nc1cc(C(F)(F)F)cn(C)c1=O)[C@@H]1CCN(c2cnc3[nH]c(=O)[nH]c3c2)C[C@@H]1F` [Example I-100-b, 1-((3S,4R)-3-fluoro-1-(2-oxo-2,3-dihydro-1H-imidazo[4,5-b]pyridin-6-yl)piperidin-4-yl)-1-methyl-3-(1-methyl-2-oxo-5-(trifluoromethyl)-1,2-dihydropyridin-3-yl)urea]: the Kd was under 10 nM.

In the case of `CC(=O)Nc1cnc(N2CCC(N(C)C(=O)Nc3cc(CN4CCN(C)CC4)cc(C(F)(F)F)c3)CC2)cn1` [Example I-19, N-(5-(4-(1-methyl-3-(3-((4-methylpiperazin-1-yl)methyl)-5-(trifluoromethyl)phenyl)ureido)piperidin-1-yl)pyrazin-2-yl)acetamide], the Kd fell in the range of 10 to 50 nM.

On to `Cn1cc(C(F)(F)F)cc(NC(=O)N2CC=CC23CCN(c2cnc4[nH]ncc4c2)CC3)c1=O` [Example I-81, N-(1-methyl-2-oxo-5-(trifluoromethyl)-1,2-dihydropyridin-3-yl)-8-(1H-pyrazolo[3,4-b]pyridin-5-yl)-1,8-diazaspiro[4.5]dec-3-ene-1-carboxamide], for which the Kd fell in the range of 10 to 50 nM.

Compound `COCc1cc2nc(N3CC[C@@H](N(C)C(=O)Nc4cc(C(F)(F)F)cn(C)c4=O)[C@@H](C)C3)cnc2[nH]1` [Example I-159-b, 1-((3S,4R)-1-(6-(methoxymethyl)-5H-pyrrolo[2,3-b]pyrazin-2-yl)-3-methylpiperidin-4-yl)-1-methyl-3-(1-methyl-2-oxo-5-(trifluoromethyl)-1,2-dihydropyridin-3-yl)urea] yielded a Kd of under 10 nM.

The compound `CN(C(=O)Nc1cc(C(F)(F)F)cn(C)c1=O)[C@@H]1CCN(c2cnc3[nH]cc(N4CCOCC4)c3n2)CC1(F)F` (single isomer, unassigned) [Example I-155-a] showed a Kd of 10 to 50 nM.

The compound `CNc1ccnc2c(N3CCC(N(C)C(=O)Nc4cc(C(F)(F)F)cn(C)c4=O)CC3)cnn12` [Example I-42, 1-methyl-3-(1-methyl-2-oxo-5-(trifluoromethyl)-1,2-dihydropyridin-3-yl)-1-(1-(7-(methylamino)pyrazolo[1,5-a]pyrimidin-3-yl)piperidin-4-yl)urea] returned a Kd of under 10 nM.

Take `C[C@H]1C[C@@H](N(C)C(=O)Nc2cc(C(C)(C)C)n([C@H]3C[C@H](O)C3)n2)CCN1c1cnc2[nH]ncc2c1` [Example I-135-b, 3-(5-(tert-butyl)-1-((1r,3S)-3-hydroxycyclobutyl)-1H-pyrazol-3-yl)-1-methyl-1-((2S,4S)-2-methyl-1-(1H-pyrazolo[3,4-b]pyridin-5-yl)piperidin-4-yl)urea]: the Kd was in the range of 50 to 1000 nM.

`CN(C(=O)Nc1cc(C(F)(F)F)cn(C)c1=O)C1CCN(c2cnc3[nH]ccc3n2)CC1(C)C` (single isomer, unassigned) [Example I-49-b, (S)- or (R)-1-(3,3-dimethyl-1-(5H-pyrrolo[2,3-b]pyrazin-2-yl)piperidin-4-yl)-1-methyl-3-(1-methyl-2-oxo-5-(trifluoromethyl)-1,2-dihydropyridin-3-yl)urea] showed a Kd of under 10 nM.

On to `CN(C(=O)Nc1cc(C(F)(F)F)cn(C)c1=O)[C@H]1CCN(c2cnc3cn[nH]c3c2)C[C@H]1F` [Example I-95-a, 1-((3R,4S)-3-fluoro-1-(1H-pyrazolo[4,3-b]pyridin-6-yl)piperidin-4-yl)-1-methyl-3-(1-methyl-2-oxo-5-(trifluoromethyl)-1,2-dihydropyridin-3-yl)urea], for which the Kd was under 10 nM.

`COc1n[nH]c2ncc(N3CC[C@@H](N(C)C(=O)Nc4cc(C(F)(F)F)cn(C)c4=O)C[C@H]3C)cc12` [Example I-133-b, 1-((2R,4R)-1-(3-methoxy-1H-pyrazolo[3,4-b]pyridin-5-yl)-2-methylpiperidin-4-yl)-1-methyl-3-(1-methyl-2-oxo-5-(trifluoromethyl)-1,2-dihydropyridin-3-yl)urea] displayed a Kd of under 10 nM.

As for `COc1n[nH]c2ncc(N3CC[C@H](N(C)C(=O)Nc4cc(C(F)(F)F)cn(C)c4=O)[C@@H](F)C3)cc12` [Example I-84-a, 1-((3S,4S)-3-fluoro-1-(3-methoxy-1H-pyrazolo[3,4-b]pyridin-5-yl)piperidin-4-yl)-1-methyl-3-(1-methyl-2-oxo-5-(trifluoromethyl)-1,2-dihydropyridin-3-yl)urea], the Kd was under 10 nM.

Take `Cc1cc(C(F)(F)F)cc(NC(=O)N(C)[C@@H]2CCN(c3cnc4[nH]ncc4c3)C[C@H]2F)n1` [Example I-177, 1-((3R,4R)-3-fluoro-1-(1H-pyrazolo[3,4-b]pyridin-5-yl)piperidin-4-yl)-1-methyl-3-(6-methyl-4-(trifluoromethyl)pyridin-2-yl)urea]: the Kd is under 10 nM.

For the compound `COCc1cc2nc(N3CC[C@H](N(C)C(=O)Nc4cc(C(F)(F)F)cn(C)c4=O)[C@H](C)C3)cnc2[nH]1` [Example I-159-a, 1-((3R,4S)-1-(6-(methoxymethyl)-5H-pyrrolo[2,3-b]pyrazin-2-yl)-3-methylpiperidin-4-yl)-1-methyl-3-(1-methyl-2-oxo-5-(trifluoromethyl)-1,2-dihydropyridin-3-yl)urea], the Kd was under 10 nM.

`CN(C(=O)Nc1cc(C(F)(F)F)cn(C)c1=O)[C@@H]1C[C@@H]2C[C@H]1CN2c1cnc2[nH]ccc2n1` [Example I-43-a, 1-((1S,4S,5R)-2-(5H-pyrrolo[2,3-b]pyrazin-2-yl)-2-azabicyclo[2.2.1]heptan-5-yl)-1-methyl-3-(1-methyl-2-oxo-5-(trifluoromethyl)-1,2-dihydropyridin-3-yl)urea] registered a Kd of 10 to 50 nM.

With `COCCOc1n[nH]c2ncc(N3CC[C@H]4[C@H](C3)OCCN4C(=O)Nc3cc(C(F)(F)F)cn(C)c3=O)cc12` [Example I-162-a, (4aS,8aS)-6-(3-(2-methoxyethoxy)-1H-pyrazolo[3,4-b]pyridin-5-yl)-N-(1-methyl-2-oxo-5-(trifluoromethyl)-1,2-dihydropyridin-3-yl)octahydro-1H-pyrido[3,4-b][1,4]oxazine-1-carboxamide], the Kd is under 10 nM.

`CN(C(=O)Nc1cc(C(F)(F)F)cn(C)c1=O)[C@H]1CCN(c2cnc3[nH]nc(OC4CCOCC4)c3c2)C[C@H]1F` [Example I-107-b, 1-((3R,4S)-3-fluoro-1-(3-((tetrahydro-2H-pyran-4-yl)oxy)-1H-pyrazolo[3,4-b]pyridin-5-yl)piperidin-4-yl)-1-methyl-3-(1-methyl-2-oxo-5-(trifluoromethyl)-1,2-dihydropyridin-3-yl)urea] gave a Kd of under 10 nM.

In the case of `COc1c[nH]c2ncc(N3CC[C@H](N(C)C(=O)Nc4cc(C(F)(F)F)cn(C)c4=O)[C@@H](F)C3)nc12` [Example I-149, 1-((3S,4S)-3-fluoro-1-(7-methoxy-5H-pyrrolo[2,3-b]pyrazin-2-yl)piperidin-4-yl)-1-methyl-3-(1-methyl-2-oxo-5-(trifluoromethyl)-1,2-dihydropyridin-3-yl)urea], the Kd was under 10 nM.

Take `CN(C(=O)Nc1cc(C(F)(F)F)cn(C)c1=O)C1(C)CCN(c2cnc3[nH]cc(F)c3n2)CC1` [Example I-56, 1-(1-(7-fluoro-5H-pyrrolo[2,3-b]pyrazin-2-yl)-4-methylpiperidin-4-yl)-1-methyl-3-(1-methyl-2-oxo-5-(trifluoromethyl)-1,2-dihydropyridin-3-yl)urea]: the Kd is 10 to 50 nM.

For `CC1CN(C(=O)Nc2cc(C(F)(F)F)cn(C)c2=O)C2(CCN(c3cnc4[nH]cc(F)c4n3)CC2)C1` (single isomer, unassigned) [Example I-54-a], the Kd fell in the range of 50 to 1000 nM.
